Test systems include HL-60(TB) leukemia; DU-145 prostate; T-47D breast; SR leukemia; NCI-H460 lung; EKVX NSCLC; NCI/ADR-RES ovarian; NCI-H226 lung; SK-MEL-2 melanoma; HCC-2998 colon.
What all share (assay): growth of human tumour cells (NCI), 48 h

Structures are written as SMILES.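 Cultured in 96-well plates, cells were exposed to test compound for 48 hours across five concentrations. The concentration for full growth arrest is given as TGI.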

`COc1ccc(-c2c(C(C)=O)c(C)n(C3OC(CO)C(O)C(O)C3O)c(=S)c2C#N)cc1` (stereo unspecified): the TGI with HL-60(TB) leukemia, in the experiment on DU-145 prostate, in the experiment on T-47D breast, with SR leukemia, with NCI-H460 lung and in the experiment with EKVX NSCLC was above 100 µM throughout. In the experiment on NCI/ADR-RES ovarian, the TGI is above 100 µM.
In the case of `CC(=O)c1nccc2c1c(C)nc1ccccc12`, the TGI was above 100 µM with HL-60(TB) leukemia; 67.9 µM in the experiment on NCI-H226 lung; above 100 µM in the experiment on DU-145 prostate; above 100 µM in the experiment on T-47D breast; above 100 µM in the experiment with SK-MEL-2 melanoma; above 100 µM in the experiment with SR leukemia. The TGI with NCI-H460 lung, with EKVX NSCLC and in the experiment on NCI/ADR-RES ovarian was above 100 µM each time.
Turning to `CNC(=O)OCC1=C(COC(=O)NC)CN(c2ccccc2)C1`, the TGI in the experiment with NCI-H226 lung, in the experiment with DU-145 prostate, in the experiment with T-47D breast, with SK-MEL-2 melanoma, in the experiment with SR leukemia and in the experiment with NCI-H460 lung was above 100 µM each time. Also, the TGI with EKVX NSCLC, with HCC-2998 colon and in the experiment with NCI/ADR-RES ovarian was above 100 µM throughout.
`COC(=O)c1cc2c3c(c(C(C)=O)c(OC)c2[nH]1)NCC3`: the TGI in the experiment with HL-60(TB) leukemia, in the experiment with NCI-H226 lung, in the experiment on DU-145 prostate, in the experiment with T-47D breast, with SK-MEL-2 melanoma and with SR leukemia was above 50 µM throughout. The TGI with NCI-H460 lung, in the experiment on EKVX NSCLC and with NCI/ADR-RES ovarian was above 50 µM throughout.
Consider `C=C(CCC(C(=O)O)C1CCC2(C)C3=C(CCC12C)C1(C)CCC(O)C(C)(C)C1CC3)C(C)C` (stereo unspecified), for which the TGI with NCI-H226 lung is 96.3 µM; in the experiment on DU-145 prostate, above 100 µM; in the experiment on T-47D breast it was above 100 µM; with SK-MEL-2 melanoma, above 100 µM; with SR leukemia, 27.2 µM; in the experiment with NCI-H460 lung it was 37.5 µM. Also, the TGI in the experiment with EKVX NSCLC was above 100 µM; with HCC-2998 colon, above 100 µM; in the experiment with NCI/ADR-RES ovarian, 70.5 µM.
With `COC1(OC)N=C(N)C2(C#N)/C(=N/N(C)C)CC(C)C12C#N` (stereo unspecified), the TGI with HL-60(TB) leukemia, in the experiment on NCI-H226 lung, in the experiment on DU-145 prostate, in the experiment with T-47D breast, in the experiment with SK-MEL-2 melanoma and in the experiment with SR leukemia was above 100 µM each time. Besides, the TGI in the experiment on EKVX NSCLC, with HCC-2998 colon and in the experiment with NCI/ADR-RES ovarian was above 100 µM throughout.
With `O=C(Cc1nc2ccc([N+](=O)[O-])cc2[nH]c1=O)C(=O)Nc1cc(Cl)c(Cl)cc1Cl`, the TGI in the experiment on NCI-H226 lung, in the experiment with DU-145 prostate, in the experiment on T-47D breast, in the experiment on SK-MEL-2 melanoma, in the experiment on SR leukemia and in the experiment on NCI-H460 lung was above 100 µM throughout. Besides, the TGI with EKVX NSCLC, in the experiment on HCC-2998 colon and with NCI/ADR-RES ovarian was above 100 µM in each case.
In the case of `CC(C)CC1c2[nH]c3ccccc3c2C[C@H]2C(=O)NC(COC(C)(C)C)C(=O)N12` (stereo partly specified), the TGI in the experiment on HL-60(TB) leukemia is 53.4 µM; in the experiment with NCI-H226 lung, 93 µM; with DU-145 prostate, above 100 µM; in the experiment with T-47D breast, 43.4 µM; in the experiment with SK-MEL-2 melanoma, 38.8 µM; in the experiment with SR leukemia, 46.2 µM. Also, the TGI with EKVX NSCLC is 71.7 µM; with NCI/ADR-RES ovarian, 56.7 µM.
Consider `O=C(O)CCCc1nc2c(n1-c1ccccc1)C(=O)c1ccccc1C2=O`, for which the TGI in the experiment with HL-60(TB) leukemia, in the experiment on DU-145 prostate, in the experiment on T-47D breast, with SK-MEL-2 melanoma, in the experiment on SR leukemia and with NCI-H460 lung was above 100 µM in each case. Further, the TGI with EKVX NSCLC, in the experiment with HCC-2998 colon and in the experiment on NCI/ADR-RES ovarian was above 100 µM in each case.
`CC(=O)OCC1OC(n2c3c(c(-c4ccco4)c(C#N)c2=S)CCCC3)C(OC(C)=O)C(OC(C)=O)C1OC(C)=O` (stereo unspecified): the TGI in the experiment with NCI-H226 lung, in the experiment on DU-145 prostate, with T-47D breast, in the experiment with SK-MEL-2 melanoma, with SR leukemia and in the experiment on NCI-H460 lung was above 31.6 µM in each case. Besides, the TGI was 29.8 µM with EKVX NSCLC and above 31.6 µM in the experiment on NCI/ADR-RES ovarian.
With `Cc1cccc(N2CCN(S(=O)(=O)c3ccc(Cl)cc3)C2=N)c1C`, the TGI in the experiment with NCI-H226 lung, in the experiment on DU-145 prostate, in the experiment with T-47D breast, in the experiment with SR leukemia and with NCI/ADR-RES ovarian was above 100 µM throughout.
Take `COC(=O)C(Cc1ccccc1)NC(=O)CCCNC(=O)OCc1ccccc1` (stereo unspecified): the TGI in the experiment with HL-60(TB) leukemia, in the experiment with NCI-H226 lung, in the experiment with DU-145 prostate, in the experiment on T-47D breast, in the experiment on SR leukemia and in the experiment with NCI-H460 lung was above 100 µM in each case. For the same compound, the TGI in the experiment on EKVX NSCLC, in the experiment with HCC-2998 colon and in the experiment with NCI/ADR-RES ovarian was above 100 µM in each case.
On to `O=C(O)c1ccccc1-c1ccccc1C(=O)c1ccccc1`, for which the TGI in the experiment on HL-60(TB) leukemia, with NCI-H226 lung, with DU-145 prostate, with T-47D breast, in the experiment with SK-MEL-2 melanoma and in the experiment on SR leukemia was above 100 µM throughout. Also, the TGI with NCI-H460 lung, in the experiment with EKVX NSCLC and in the experiment on NCI/ADR-RES ovarian was above 100 µM in each case.
Take `BrCC[P+](c1ccccc1)(c1ccccc1)c1ccccc1`: the TGI with HL-60(TB) leukemia was found to be 5.33 µM; in the experiment on DU-145 prostate, 19.8 µM; in the experiment with T-47D breast, 5.17 µM; in the experiment on SK-MEL-2 melanoma, 16.7 µM; in the experiment with SR leukemia it was 27.5 µM; with NCI-H460 lung it was 73.3 µM. The TGI in the experiment on EKVX NSCLC turned out to be 12.8 µM; in the experiment with HCC-2998 colon, 27.2 µM; with NCI/ADR-RES ovarian it was 27.5 µM.
Regarding `c1ccc(COc2ncccc2C2SCCCS2)cc1`, the TGI with NCI-H226 lung, in the experiment with DU-145 prostate, in the experiment on T-47D breast, with SK-MEL-2 melanoma, in the experiment on SR leukemia and in the experiment on EKVX NSCLC was above 100 µM throughout. Further, the TGI in the experiment with HCC-2998 colon and in the experiment with NCI/ADR-RES ovarian was above 100 µM each time.

(Values after PubChem BioAssay (NCI).)
